Data: ChEMBL document CHEMBL1201861, “Genomics of Drug Sensitity in Cancer screening data, Wellcome Trust Sanger Institute”

Key:
Assay in all cases: cells
[1] = system: BHY; type: functional, cell-based, Homo sapiens; conditions: Homo sapiens, BHY;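 also: cell growth inhibition read out by a viability assay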
Description: SANGER: Inhibition of human BHY cell growth in a cell viability assay.

[2] = system: HCC 2998; type: functional, cell-based, Homo sapiens; conditions: Homo sapiens, HCC 2998;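 also: growth inhibition of human HCC2998 cells, measured with a cell viability read-out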
Description: SANGER: Inhibition of human HCC2998 cell growth in a cell viability assay.

[3] = system: no-10; type: functional, cell-based, Homo sapiens; conditions: Homo sapiens;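 also: growth inhibition of no-10 cells, read out with a cell viability assay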
Description: SANGER: Inhibition of human no-10 cell growth in a cell viability assay.

[4] = system: A3-KAW; type: functional, cell-based; conditions: Homo sapiens;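 also: growth inhibition of human A3-KAW cells, read out with a cell viability assay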
Description: SANGER: Inhibition of human A3-KAW cell growth in a cell viability assay.

[5] = system: 647-V; type: functional, cell-based, Homo sapiens; conditions: Homo sapiens, 647-V;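 also: growth inhibition of 647-V cells, read out with a cell viability assay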
Description: SANGER: Inhibition of human 647-V cell growth in a cell viability assay.

[6] = system: RKO; type: functional, cell-based, Homo sapiens; conditions: Homo sapiens, RKO;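 also: growth inhibition of human RKO cells, read out with a cell viability assay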
Description: SANGER: Inhibition of human RKO cell growth in a cell viability assay.

[7] = system: KYSE-510; type: functional, cell-based, Homo sapiens; conditions: Homo sapiens, KYSE-510;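 also: cell viability readout used to measure how strongly growth of the cell line is suppressed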
Description: SANGER: Inhibition of human KYSE-510 cell growth in a cell viability assay.

[8] = system: HN; type: functional, cell-based, Homo sapiens; conditions: Homo sapiens, HN
Description: SANGER: Inhibition of human HN cell growth in a cell viability assay.

[9] = system: BFTC-909; type: functional, cell-based, Homo sapiens; conditions: Homo sapiens, BFTC-909
Description: SANGER: Inhibition of human BFTC-909 cell growth in a cell viability assay.

[10] = system: SK-N-AS; type: functional, cell-based, Homo sapiens; conditions: Homo sapiens, SK-N-AS;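 also: growth inhibition of human SK-N-AS cells, measured with a cell viability assay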
Description: SANGER: Inhibition of human SK-N-AS cell growth in a cell viability assay.

[11] = system: NY; type: functional, cell-based, Homo sapiens; conditions: Homo sapiens, NY
Description: SANGER: Inhibition of human NY cell growth in a cell viability assay.

[12] = system: SW1417; type: functional, cell-based, Homo sapiens; conditions: Homo sapiens, SW1417;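 also: growth inhibition of human SW1417 cells, read out with a cell viability assay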
Description: SANGER: Inhibition of human SW1417 cell growth in a cell viability assay.

[13] = system: IGROV-1; type: functional, cell-based, Homo sapiens; conditions: Homo sapiens, IGROV-1;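 also: reduction of IGROV-1 cell growth, read out with a viability assay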
Description: SANGER: Inhibition of human IGROV-1 cell growth in a cell viability assay.

[14] = system: RPMI-8226; type: functional, cell-based; conditions: Homo sapiens
Description: SANGER: Inhibition of human RPMI-8226 cell growth in a cell viability assay.

[15] = system: DOHH-2; type: functional, cell-based; conditions: Homo sapiens;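 also: growth inhibition of human DOHH-2 cells, read out with a cell viability assay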
Description: SANGER: Inhibition of human DOHH-2 cell growth in a cell viability assay.

[16] = system: SW948; type: functional, cell-based, Homo sapiens; conditions: Homo sapiens, SW948;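 also: growth inhibition of SW948 cells, read out with a cell viability assay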
Description: SANGER: Inhibition of human SW948 cell growth in a cell viability assay.

[17] = system: LB1047-RCC; type: functional, cell-based, Homo sapiens; conditions: Homo sapiens, LB1047-RCC;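 also: inhibition of cell growth, determined with a cell viability assay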
Description: SANGER: Inhibition of human LB1047-RCC cell growth in a cell viability assay.

[18] = system: SW 954; type: functional, cell-based, Homo sapiens; conditions: Homo sapiens, SW 954;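 also: growth inhibition of SW954 human cancer cells, read out as cell viability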
Description: SANGER: Inhibition of human SW954 cell growth in a cell viability assay.

[19] = system: KALS-1; type: functional, cell-based, Homo sapiens; conditions: Homo sapiens, KALS-1;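 also: growth inhibition of KALS-1 cells, determined with a cell viability assay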
Description: SANGER: Inhibition of human KALS-1 cell growth in a cell viability assay.

[20] = system: DU-145; type: functional, cell-based, Homo sapiens; conditions: Homo sapiens, DU-145
Description: SANGER: Inhibition of human DU-145 cell growth in a cell viability assay.

[21] = system: A101D; type: functional, cell-based, Homo sapiens; conditions: Homo sapiens, A101D;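 also: growth inhibition of the cell line, measured with a viability assay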
Description: SANGER: Inhibition of human A101D cell growth in a cell viability assay.

[22] = system: UMC-11; type: functional, cell-based, Homo sapiens; conditions: Homo sapiens, UMC-11;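 also: growth inhibition of UMC-11 cells, read out with a cell viability assay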
Description: SANGER: Inhibition of human UMC-11 cell growth in a cell viability assay.

[23] = system: DMS-273; type: functional, cell-based, Homo sapiens; conditions: Homo sapiens, DMS-273
Description: SANGER: Inhibition of human DMS-273 cell growth in a cell viability assay.

[24] = system: NB10; type: functional, cell-based, Homo sapiens; conditions: Homo sapiens, NB10;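 also: growth inhibition of NB10 cells, read out by a cell viability assay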
Description: SANGER: Inhibition of human NB10 cell growth in a cell viability assay.

[25] = system: KNS-81-FD; type: functional, cell-based, Homo sapiens; conditions: Homo sapiens, KNS-81-FD;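 also: growth inhibition of KNS-81-FD cells, read out with a cell viability assay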
Description: SANGER: Inhibition of human KNS-81-FD cell growth in a cell viability assay.

[26] = system: ATN-1; type: functional, cell-based; conditions: Homo sapiens;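 also: growth inhibition of human ATN-1 cells, read out with a cell viability assay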
Description: SANGER: Inhibition of human ATN-1 cell growth in a cell viability assay.

[27] = system: NH-12; type: functional, cell-based, Homo sapiens; conditions: Homo sapiens, NH-12;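 also: growth inhibition of NH-12 cells, read out with a cell viability assay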
Description: SANGER: Inhibition of human NH-12 cell growth in a cell viability assay.

[28] = system: CAS-1; type: functional, cell-based, Homo sapiens; conditions: Homo sapiens, CAS-1;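 also: growth inhibition of CAS-1 cells, measured with a cell viability assay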
Description: SANGER: Inhibition of human CAS-1 cell growth in a cell viability assay.

[29] = system: COLO-680N; type: functional, cell-based, Homo sapiens; conditions: Homo sapiens, COLO-680N;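 also: cell viability assay used to measure inhibition of COLO-680N cell growth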
Description: SANGER: Inhibition of human COLO-680N cell growth in a cell viability assay.

[30] = system: HDLM-2; type: functional, cell-based; conditions: Homo sapiens;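 also: cell viability assay measuring suppression of HDLM-2 proliferation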
Description: SANGER: Inhibition of human HDLM-2 cell growth in a cell viability assay.

[31] = system: KP-N-YS; type: functional, cell-based; conditions: Homo sapiens;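 also: cell viability assay measuring inhibition of cell line growth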
Description: SANGER: Inhibition of human KP-N-YS cell growth in a cell viability assay.

[32] = system: LB831-BLC; type: functional, cell-based, Homo sapiens; conditions: Homo sapiens, LB831-BLC;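 also: growth inhibition of LB831-BLC cells, read out with a cell viability assay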
Description: SANGER: Inhibition of human LB831-BLC cell growth in a cell viability assay.

[33] = system: HT-29; type: functional, cell-based, Homo sapiens; conditions: Homo sapiens, HT-29;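 also: growth inhibition of human HT-29 cells, read out by a cell viability assay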
Description: SANGER: Inhibition of human HT-29 cell growth in a cell viability assay.

[34] = system: C8166; type: functional, cell-based; conditions: Homo sapiens;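 also: growth inhibition of human C8166 cells measured by a cell viability assay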
Description: SANGER: Inhibition of human C8166 cell growth in a cell viability assay.

[35] = system: SK-MEL-30; type: functional, cell-based; conditions: Homo sapiens;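 also: growth inhibition of SK-MEL-30 cells, determined with a cell viability assay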
Description: SANGER: Inhibition of human SK-MEL-30 cell growth in a cell viability assay.

[36] = system: CaR-1; type: functional, cell-based, Homo sapiens; conditions: Homo sapiens, CaR-1;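 also: growth inhibition of human CaR-1 cancer cells, read out with a cell viability assay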
Description: SANGER: Inhibition of human CaR-1 cell growth in a cell viability assay.

[37] = system: A4-Fuk; type: functional, cell-based; conditions: Homo sapiens;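 also: growth inhibition of A4-Fuk cells, read out by a cell viability assay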
Description: SANGER: Inhibition of human A4-Fuk cell growth in a cell viability assay.

[38] = system: EKVX; type: functional, cell-based, Homo sapiens; conditions: Homo sapiens, EKVX;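 also: growth inhibition of human EKVX cells, read out with a cell viability assay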
Description: SANGER: Inhibition of human EKVX cell growth in a cell viability assay.

[39] = system: HTC-C3; type: functional, cell-based, Homo sapiens; conditions: Homo sapiens, HTC-C3;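 also: inhibition of cell growth, read out with a cell viability assay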
Description: SANGER: Inhibition of human HTC-C3 cell growth in a cell viability assay.

[40] = system: HCC38; type: functional, cell-based, Homo sapiens; conditions: Homo sapiens, HCC38;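 also: cell viability assay on the human HCC38 cell line, with IC50 marking the concentration that inhibits cell growth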
Description: SANGER: Inhibition of human HCC38 cell growth in a cell viability assay.

[41] = system: LCLC-103H cell line; type: functional, cell-based, Homo sapiens; conditions: Homo sapiens, LCLC-103H
Description: SANGER: Inhibition of human LCLC-103H cell growth in a cell viability assay.

[42] = system: NOS-1; type: functional, cell-based, Homo sapiens; conditions: Homo sapiens, NOS-1;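 also: growth inhibition of the human NOS-1 cell line, read out with a cell viability assay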
Description: SANGER: Inhibition of human NOS-1 cell growth in a cell viability assay.

[43] = system: SK-MEL-28; type: functional, cell-based; conditions: Homo sapiens;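 also: growth inhibition of human SK-MEL-28 cells, read out with a cell viability assay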
Description: SANGER: Inhibition of human SK-MEL-28 cell growth in a cell viability assay.

[44] = system: NCI-H1299; type: functional, cell-based, Homo sapiens; conditions: Homo sapiens, NCI-H1299;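 also: growth inhibition of human NCI-H1299 cells, read out by a cell viability assay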
Description: SANGER: Inhibition of human NCI-H1299 cell growth in a cell viability assay.

[45] = system: AGS; type: functional, cell-based, Homo sapiens; conditions: Homo sapiens, AGS;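 also: growth inhibition of AGS cells, determined with a cell viability assay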
Description: SANGER: Inhibition of human AGS cell growth in a cell viability assay.

[46] = system: NCI-H2030; type: functional, cell-based, Homo sapiens; conditions: Homo sapiens, NCI-H2030;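 also: growth inhibition of human NCI-H2030 cells, read out by a cell viability assay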
Description: SANGER: Inhibition of human NCI-H2030 cell growth in a cell viability assay.

[47] = system: SK-LMS-1; type: functional, cell-based, Homo sapiens; conditions: Homo sapiens, SK-LMS-1;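 also: growth inhibition of human SK-LMS-1 cells, read out with a cell viability assay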
Description: SANGER: Inhibition of human SK-LMS-1 cell growth in a cell viability assay.

[48] = system: NCI-H28; type: functional, cell-based, Homo sapiens; conditions: Homo sapiens, NCI-H28;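 also: growth inhibition of human NCI-H28 cells, read out as cell viability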
Description: SANGER: Inhibition of human NCI-H28 cell growth in a cell viability assay.

[49] = system: OAW-42; type: functional, cell-based, Homo sapiens; conditions: Homo sapiens, OAW-42;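 also: growth inhibition of OAW-42 cells, read out with a cell viability assay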
Description: SANGER: Inhibition of human OAW-42 cell growth in a cell viability assay.

[50] = system: ChaGo-K-1; type: functional, cell-based; conditions: Homo sapiens;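 also: growth inhibition of ChaGo-K-1 cells, read out with a cell viability assay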
Description: SANGER: Inhibition of human ChaGo-K-1 cell growth in a cell viability assay.

[51] = system: NCI-H69; type: functional, cell-based; conditions: Homo sapiens;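 also: growth inhibition of the cell line, read out with a cell viability assay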
Description: SANGER: Inhibition of human NCI-H69 cell growth in a cell viability assay.

[52] = system: EW-3; type: functional, cell-based; conditions: Homo sapiens;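 also: cell viability assay read-out, IC50 reflects inhibition of growth of the EW-3 cells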
Description: SANGER: Inhibition of human EW-3 cell growth in a cell viability assay.

`O=c1cc(-c2cccc3c2Sc2ccccc2S3)oc(N2CCOCC2)c1` [KU-55933] showed an IC50 [1] of over 10 µM, an IC50 [2] of over 10 µM and an IC50 [3] of over 10 µM. It also gave an IC50 [4] of over 10 µM, an IC50 [5] of over 10 µM and an IC50 [6] of over 10 µM. The IC50 [7] was over 10 µM, the IC50 [8] was over 10 µM and the IC50 [9] was over 10 µM. It also gave an IC50 [10] of over 10 µM, an IC50 [11] of over 10 µM and an IC50 [12] of over 10 µM. For the same compound, the IC50 [13] was over 10 µM, the IC50 [14] was over 10 µM and the IC50 [15] was over 10 µM. It also gave an IC50 [16] of over 10 µM, an IC50 [17] of over 10 µM and an IC50 [18] of over 10 µM. The IC50 [19] was over 10 µM, the IC50 [20] was 3.27 µM and the IC50 [21] was over 10 µM. For the same compound, the IC50 [22] was over 10 µM, the IC50 [23] was over 10 µM and the IC50 [24] was over 10 µM. For the same compound, the IC50 [25] was over 10 µM, the IC50 [26] was over 10 µM and the IC50 [27] was over 10 µM. It also gave an IC50 [28] of over 10 µM, an IC50 [29] of over 10 µM and an IC50 [30] of over 10 µM. It also gave an IC50 [31] of over 10 µM, an IC50 [32] of over 10 µM and an IC50 [33] of over 10 µM. The IC50 [34] was over 10 µM, the IC50 [35] was over 10 µM and the IC50 [36] was over 10 µM. It also gave an IC50 [37] of over 10 µM, an IC50 [38] of over 10 µM and an IC50 [39] of over 10 µM. The IC50 [40] was over 10 µM, the IC50 [41] was over 10 µM and the IC50 [42] was over 10 µM. It also gave an IC50 [43] of over 10 µM, an IC50 [44] of over 10 µM and an IC50 [45] of over 10 µM. It also gave an IC50 [46] of over 10 µM, an IC50 [47] of over 10 µM and an IC50 [48] of over 10 µM. The IC50 [49] was over 10 µM and the IC50 [50] was over 10 µM.

In the case of `COc1ccc(C2=N[C@@H](c3ccc(Cl)cc3)[C@@H](c3ccc(Cl)cc3)N2C(=O)N2CCNC(=O)C2)c(OC(C)C)c1` [NUTLIN-3], the IC50 [1] is reported as over 8 µM, the IC50 [2] is reported as over 8 µM and the IC50 [3] is reported as over 8 µM. For the same compound, the IC50 [4] was 2.62 µM, the IC50 [5] was over 8 µM and the IC50 [6] was 3.54 µM. It also gave an IC50 [7] of over 8 µM, an IC50 [8] of over 8 µM and an IC50 [9] of over 8 µM. It also gave an IC50 [10] of over 8 µM, an IC50 [11] of over 8 µM and an IC50 [12] of over 8 µM. The IC50 [13] was over 8 µM, the IC50 [14] was over 8 µM and the IC50 [15] was 2.42 µM. For the same compound, the IC50 [16] was over 8 µM, the IC50 [17] was over 8 µM and the IC50 [18] was 6.56 µM. For the same compound, the IC50 [51] was over 8 µM, the IC50 [19] was over 8 µM and the IC50 [20] was over 8 µM. The IC50 [21] was 2.35 µM, the IC50 [22] was over 8 µM and the IC50 [23] was over 8 µM. It also gave an IC50 [24] of 3.21 µM, an IC50 [25] of 6.76 µM and an IC50 [26] of over 8 µM. It also gave an IC50 [27] of 4.02 µM, an IC50 [28] of over 8 µM and an IC50 [29] of over 8 µM. For the same compound, the IC50 [30] was over 8 µM, the IC50 [31] was over 8 µM and the IC50 [32] was over 8 µM. The IC50 [33] was over 8 µM, the IC50 [34] was over 8 µM and the IC50 [35] was over 8 µM. It also gave an IC50 [36] of over 8 µM, an IC50 [37] of over 8 µM and an IC50 [38] of over 8 µM. It also gave an IC50 [39] of over 8 µM, an IC50 [40] of over 8 µM and an IC50 [41] of over 8 µM. The IC50 [42] was over 8 µM, the IC50 [43] was over 8 µM and the IC50 [44] was over 8 µM. It also gave an IC50 [52] of over 8 µM, an IC50 [45] of 6.15 µM and an IC50 [46] of over 8 µM. The IC50 [48] was 4.63 µM, the IC50 [49] was over 8 µM and the IC50 [50] was over 8 µM.
